Laboratory results taken from EP0107907A2, “Improvements in or relating to immunomodulating agents” (ELI LILLY AND COMPANY, priority 1982, dated 1984).
Marks after values point to notes of the source that are not given here.

Tests used:
C. albicans A26 = assay: Standard agar-diffusion test, antifungal; format: cell-based
Description: In this test CD1 mice weighing 18-20 g were pretreated intraperitoneally or subcutaneously with test compound at 5, 3, and 1 days before intravenous infection with 5 x 10^6 viable cells of Candida albicans A26. Test compound was solubilized in pyrogen-free water and administered in 0.25 ml of solution. Ten mice were used for each concentration tested. Ten infected mice were treated intraperitoneally or subcutaneously at 5, 3, and 1 days preinfection with 0.25 ml of pyrogen-free water as controls. The immunomodulatory effects of the test compound were studied in X-irradiated mice exposed to 400R 24 hours preinfection, or mice treated intraperitoneally with 50 mg/kg cyclophosphamide 5, 3, and 1 days preinfection. The mice were caged, watered, and fed daily. The number of surviving mice was counted daily. Normal mice surviving 18 days post-infection were given an arbitrary 19-day survival time. X-irradiated or cyclophosphamide-treated mice surviving 12 days post-infection were given an arbitrary 13 day survival time. The average survival time was calculated for each group. Significant differences between treated and untreated groups of mice were determined by "T" test. Compound 1 was devoid of intrinsic in vitro antifungal activity against C. albicans A26 in a standard agar-diffusion test.

[1] = test system: Listeria monocytogenes EGD; assay: Protection of mice by pretreatment against lethal Listeria monocytogenes infection; format: in vivo, CD1 mice; conditions: for Average Survival Time: survivors at 14 days given 15 day survival time;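 as to Percent Survivors: survivors counted daily for 14 days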
Description: In the test CD1 mice weighing 18-20 g were pretreated parenterally with the test compound 5, 3, and 1 days before intravenous infection in the lateral tail vein with 0.1 ml containing 5 x 10^5 viable cells of Listeria monocytogenes EGD. Test compound was solubilized in pyrogen-free water and administered intraperitoneally in 0.25 ml of the solution. Ten mice each were used for each concentration tested. Ten control mice were treated intraperitoneally at 5, 3, and 1-days preinfection with 0.25 ml of pyrogen-free water. The mice were caged, watered, and fed daily. […] All surviving animals at 14 days were given an arbitrary 15 day survival time. The average survival time was calculated for each group. Significant differences between the treated and control groups of mice were determined by the standard "T" test.

Electrometric titration = format: physicochemical; conditions: 66% aqueous dimethylformamide; the glycyl amino group
L. monocytogenes EDG = assay: Standard agar-diffusion test, antibacterial; format: cell-based
Excerpt: Compound 1 was negative in the Limulus Lysate Test for endotoxin and was devoid of intrinsic in vitro antibacterial activity against L. monocytogenes EDG in a standard agar-diffusion test.

SMILES: C=C(CP(=O)(O)O)NC(=O)[C@H](CC(C)C)NC(=O)CN [Compound 1, N^2-glycyl-N-(1-methylene-2-phosphonoethyl)leucinamide]
- intrinsic in vitro antifungal activity (C. albicans A26): devoid
- Percent Survivors ([1]; pretreatment 6.25 mg/kg i.p., day 1 post infection): 100%
- Percent Survivors ([1]; pretreatment 6.25 mg/kg i.p., day 2 post infection): 100%
- Percent Survivors ([1]; pretreatment 6.25 mg/kg i.p., day 3 post infection): 100%
- Percent Survivors ([1]; pretreatment 6.25 mg/kg i.p., day 4 post infection): 60%
- Percent Survivors ([1]; pretreatment 6.25 mg/kg i.p., day 5 post infection): 50%
- Percent Survivors ([1]; pretreatment 6.25 mg/kg i.p., day 6 post infection): 40%
- Percent Survivors ([1]; pretreatment 6.25 mg/kg i.p., day 7 post infection): 30%
- Percent Survivors ([1]; pretreatment 6.25 mg/kg i.p., day 8 post infection): 30%
- Percent Survivors ([1]; pretreatment 6.25 mg/kg i.p., day 9 post infection): 30%
- Percent Survivors ([1]; pretreatment 6.25 mg/kg i.p., day 10 post infection): 30%
- Percent Survivors ([1]; pretreatment 6.25 mg/kg i.p., day 11 post infection): 30%
- Percent Survivors ([1]; pretreatment 6.25 mg/kg i.p., day 12 post infection): 30%
- Percent Survivors ([1]; pretreatment 6.25 mg/kg i.p., day 13 post infection): 30%
- Percent Survivors ([1]; pretreatment 6.25 mg/kg i.p., day 14 post infection): 30%
- Average Survival Time ([1]; pretreatment 6.25 mg/kg i.p.): 7.9* Days
- Percent Survivors ([1]; pretreatment 12.5 mg/kg i.p., day 1 post infection): 100%
- Percent Survivors ([1]; pretreatment 12.5 mg/kg i.p., day 2 post infection): 100%
- Percent Survivors ([1]; pretreatment 12.5 mg/kg i.p., day 3 post infection): 100%
- Percent Survivors ([1]; pretreatment 12.5 mg/kg i.p., day 4 post infection): 80%
- Percent Survivors ([1]; pretreatment 12.5 mg/kg i.p., day 5 post infection): 80%
- Percent Survivors ([1]; pretreatment 12.5 mg/kg i.p., day 6 post infection): 70%
- Percent Survivors ([1]; pretreatment 12.5 mg/kg i.p., day 7 post infection): 70%
- Percent Survivors ([1]; pretreatment 12.5 mg/kg i.p., day 8 post infection): 70%
- Percent Survivors ([1]; pretreatment 12.5 mg/kg i.p., day 9 post infection): 70%
- Percent Survivors ([1]; pretreatment 12.5 mg/kg i.p., day 10 post infection): 70%
- Percent Survivors ([1]; pretreatment 12.5 mg/kg i.p., day 11 post infection): 70%
- Percent Survivors ([1]; pretreatment 12.5 mg/kg i.p., day 12 post infection): 70%
- Percent Survivors ([1]; pretreatment 12.5 mg/kg i.p., day 13 post infection): 70%
- Percent Survivors ([1]; pretreatment 12.5 mg/kg i.p., day 14 post infection): 70%
- Percent Survivors ([1]; pretreatment 12.5 mg/kg i.p., day 15 post infection): 70%
- Average Survival Time ([1]; pretreatment 12.5 mg/kg i.p.): 11.9* Days
- Percent Survivors ([1]; pretreatment 25 mg/kg i.p., day 1 post infection): 100%
- Percent Survivors ([1]; pretreatment 25 mg/kg i.p., day 2 post infection): 100%
- Percent Survivors ([1]; pretreatment 25 mg/kg i.p., day 3 post infection): 90%
- Percent Survivors ([1]; pretreatment 25 mg/kg i.p., day 4 post infection): 70%
- Percent Survivors ([1]; pretreatment 25 mg/kg i.p., day 5 post infection): 40%
- Percent Survivors ([1]; pretreatment 25 mg/kg i.p., day 6 post infection): 40%
- Percent Survivors ([1]; pretreatment 25 mg/kg i.p., day 7 post infection): 40%
- Percent Survivors ([1]; pretreatment 25 mg/kg i.p., day 8 post infection): 40%
- Percent Survivors ([1]; pretreatment 25 mg/kg i.p., day 9 post infection): 40%
- Percent Survivors ([1]; pretreatment 25 mg/kg i.p., day 10 post infection): 40%
- Percent Survivors ([1]; pretreatment 25 mg/kg i.p., day 11 post infection): 40%
- Percent Survivors ([1]; pretreatment 25 mg/kg i.p., day 12 post infection): 40%
- Percent Survivors ([1]; pretreatment 25 mg/kg i.p., day 13 post infection): 40%
- Percent Survivors ([1]; pretreatment 25 mg/kg i.p., day 14 post infection): 40%
- Percent Survivors ([1]; pretreatment 25 mg/kg i.p., day 15 post infection): 40%
- Average Survival Time ([1]; pretreatment 25 mg/kg i.p.): 8.6* Days
- Percent Survivors ([1]; pretreatment 50 mg/kg i.p., day 1 post infection): 100%
- Percent Survivors ([1]; pretreatment 50 mg/kg i.p., day 2 post infection): 100%
- Percent Survivors ([1]; pretreatment 50 mg/kg i.p., day 3 post infection): 80%
- Percent Survivors ([1]; pretreatment 50 mg/kg i.p., day 4 post infection): 70%
- Percent Survivors ([1]; pretreatment 50 mg/kg i.p., day 5 post infection): 40%
- Percent Survivors ([1]; pretreatment 50 mg/kg i.p., day 6 post infection): 30%
- Percent Survivors ([1]; pretreatment 50 mg/kg i.p., day 7 post infection): 30%
- Percent Survivors ([1]; pretreatment 50 mg/kg i.p., day 8 post infection): 30%
- Percent Survivors ([1]; pretreatment 50 mg/kg i.p., day 9 post infection): 30%
- Percent Survivors ([1]; pretreatment 50 mg/kg i.p., day 10 post infection): 30%
- Percent Survivors ([1]; pretreatment 50 mg/kg i.p., day 11 post infection): 30%
- Percent Survivors ([1]; pretreatment 50 mg/kg i.p., day 12 post infection): 30%
- Percent Survivors ([1]; pretreatment 50 mg/kg i.p., day 13 post infection): 30%
- Percent Survivors ([1]; pretreatment 50 mg/kg i.p., day 14 post infection): 30%
- Percent Survivors ([1]; pretreatment 50 mg/kg i.p., day 15 post infection): 30%
- Average Survival Time ([1]; pretreatment 50 mg/kg i.p.): 7.6* Days
- Percent Survivors ([1]; pretreatment 100 mg/kg i.p., day 1 post infection): 100%
- Percent Survivors ([1]; pretreatment 100 mg/kg i.p., day 2 post infection): 100%
- Percent Survivors ([1]; pretreatment 100 mg/kg i.p., day 3 post infection): 80%
- Percent Survivors ([1]; pretreatment 100 mg/kg i.p., day 4 post infection): 50%
- Percent Survivors ([1]; pretreatment 100 mg/kg i.p., day 5 post infection): 50%
- Percent Survivors ([1]; pretreatment 100 mg/kg i.p., day 6 post infection): 50%
- Percent Survivors ([1]; pretreatment 100 mg/kg i.p., day 7 post infection): 50%
- Percent Survivors ([1]; pretreatment 100 mg/kg i.p., day 8 post infection): 50%
- Percent Survivors ([1]; pretreatment 100 mg/kg i.p., day 9 post infection): 50%
- Percent Survivors ([1]; pretreatment 100 mg/kg i.p., day 10 post infection): 50%
- Percent Survivors ([1]; pretreatment 100 mg/kg i.p., day 11 post infection): 50%
- Percent Survivors ([1]; pretreatment 100 mg/kg i.p., day 12 post infection): 50%
- Percent Survivors ([1]; pretreatment 100 mg/kg i.p., day 13 post infection): 50%
- Percent Survivors ([1]; pretreatment 100 mg/kg i.p., day 14 post infection): 50%
- Percent Survivors ([1]; pretreatment 100 mg/kg i.p., day 15 post infection): 50%
- Average Survival Time ([1]; pretreatment 100 mg/kg i.p.): 9.3* Days
- protecting mice against a lethal Listeria monocytogenes EGD infection ([1]; pretreatment 5, 3, and 1 days before intravenous infection, intraperitoneally): highly effective
- pKa (Electrometric titration): 8.2
- intrinsic in vitro antibacterial activity (L. monocytogenes EDG): devoid
